The source of these data is ChEMBL document CHEMBL1201862, “PubChem BioAssay data set” (2004).

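48-hour exposure; five concentrations; linearly interpolated endpoints. GI50: concentration for 50% inhibition of growth.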 Active and inactive are the calls of the source. Rule as the data show it: active = GI50 up to about 1.1 µM and inactive = higher.

Common to all, as to assay: NCI-60 cell line screen, 48 h
The test system of assay [1] is A549.
Assay [2] deals with COLO 205.
Assay [3] deals with DU-145.
The test system of assay [4] is EKVX.
For assay [5], the system named is HCC 2998.
For assay [6], the system named is HOP-62.
The subject of assay [7] is HOP-92.
For assay [8], the system named is K562.
For assay [9], the system named is M14.
Assay [10] concerns MOLT-4.
Assay [11] has as its system NCI-H226.
Assay [12] has as its system NCI-H522.
The test system of assay [13] is OVCAR-3.
Assay [14] relates to RXF 393.
The subject of assay [15] is SF-268.
The test system of assay [16] is SK-MEL-28.
The subject of assay [17] is SN12C.
In assay [18] the test system is SNB-19.
For assay [19], the system named is SW-620.
The subject of assay [20] is U-251.

On to `CC(=O)c1sc2c(c1OC(=O)c1ccc(Cl)cc1Cl)c(=O)n(-c1ccccc1)c(=S)n2-c1ccccc1`, for which the GI50 in [1] is 9.98 µM (inactive); in [2], 1.07 µM (active); in assay [3], 21.7 µM (inactive); in assay [4] it was 6.55 µM (inactive); in [5] it was 6.37 µM (inactive); in assay [6] it was 1.41 µM (inactive). Moreover, the GI50 in [7] is 0.78 µM (active); in assay [8], 4.32 µM (inactive); in assay [9], 0.303 µM (active); in assay [10], 0.14 µM (active); in [11], 0.258 µM (active); in assay [12], 1.2 µM (inactive). In addition, the GI50 in assay [13] was 4.14 µM (inactive); in assay [14], 0.382 µM (active); in assay [15], 0.552 µM (active); in assay [16], 0.475 µM (active); in assay [17] it was 0.369 µM (active); in assay [18] it was 0.673 µM (active). Besides, the figures for the GI50 in assay [19] and in [20] were 3.97 µM (inactive) and 0.342 µM (active), respectively.
For `O=C1C(c2c(O)[nH]c3ccc([N+](=O)[O-])cc23)=Nc2ccccc21`, the GI50 was > 100 µM (inactive) in [1]; > 100 µM (inactive) in assay [2]; > 100 µM (inactive) in assay [3]; > 100 µM (inactive) in assay [4]; > 100 µM (inactive) in [5]; 87.5 µM (inactive) in assay [6]. Besides, the GI50 was > 100 µM (inactive) in assay [7]; > 100 µM (inactive) in assay [8]; > 100 µM (inactive) in assay [9]; 65.9 µM (inactive) in [10]; > 100 µM (inactive) in assay [11]; > 100 µM (inactive) in [12]. The GI50 in assay [13] is > 100 µM (inactive); in [14], 13 µM (inactive); in [15] it was > 100 µM (inactive); in assay [16], > 100 µM (inactive); in [17], > 100 µM (inactive); in assay [18] it was 49.8 µM (inactive). Further, the GI50 in assay [19] is > 100 µM (inactive); in assay [20], 21.2 µM (inactive).
Regarding `CCNC(=O)Cc1nc2c(O)ncnc2n1C1OC(CO)C(O)C1O` (stereo not given), the GI50 in assay [1], in assay [2], in assay [3], in assay [4], in assay [5] and in assay [6] was > 100 µM (inactive) in each case. Further, the GI50 in assay [7], in [8], in assay [9], in assay [10], in [11] and in assay [12] was > 100 µM (inactive) in each case. Further, the GI50 in assay [13], in assay [14], in assay [15], in [16], in assay [17] and in assay [18] was > 100 µM (inactive) in each case. For the same compound, the GI50 in assay [19] and in [20] was > 100 µM (inactive) each time.
Turning to `COc1cc(C)c2c(=O)c3ccccc3n(C)c2c1`, the GI50 was 38.5 µM (inactive) in assay [1]; 26.9 µM (inactive) in assay [2]; 33.2 µM (inactive) in assay [3]; 35 µM (inactive) in assay [4]; 45 µM (inactive) in assay [5]; > 10 µM (inactive) in [6]. The GI50 in assay [7] is 7.43 µM (inactive); in assay [8], 17.1 µM (inactive); in assay [9], 27.2 µM (inactive); in assay [10], 29.2 µM (inactive); in assay [11], 26.7 µM (inactive); in assay [12], 2.54 µM (inactive). The GI50 in [13] was 21.6 µM (inactive); in assay [14] it was 14.2 µM (inactive); in assay [15] it was 30.5 µM (inactive); in assay [16] it was 32 µM (inactive); in assay [17] it was 20.7 µM (inactive); in assay [18] it was 34.8 µM (inactive). Further, the figures for the GI50 in assay [19] and in assay [20] were 45.3 µM (inactive) and 20 µM (inactive), respectively.
Turning to `COc1ccc2c(c1)C(=O)C1(C2)[C@H](c2ccccc2)C2C(=O)c3cc(OC)ccc3C2[C@H]1c1ccccc1` (stereo not given in full), the GI50 in assay [1], in assay [2], in [3], in assay [4], in assay [5] and in assay [6] was > 100 µM (inactive) in each case. The GI50 in assay [7], in assay [8], in assay [9], in assay [10], in assay [11] and in assay [12] was > 100 µM (inactive) each time. In addition, the GI50 in assay [13], in assay [14], in [15], in assay [16], in assay [17] and in assay [18] was > 100 µM (inactive) each time. Moreover, the GI50 in assay [19] and in assay [20] was > 100 µM (inactive) in each case.
On to `Cc1ccc2[nH]c3c(c2c1)C1CCC(C(C)(C)C)CC1C1C(=O)N(c2ccc(Oc4ccccc4)cc2)C(=O)C31` (stereo not given), for which the GI50 was 16.3 µM (inactive) in assay [1]; 13.5 µM (inactive) in assay [2]; > 95.3 µM (inactive) in assay [3]; 27 µM (inactive) in [4]; 39.3 µM (inactive) in [5]; 22.4 µM (inactive) in assay [6]. For the same compound, the GI50 in assay [7] was 14.4 µM (inactive); in [8], 8.91 µM (inactive); in [9] it was 48.8 µM (inactive); in assay [10] it was 2.77 µM (inactive); in assay [11], 29.4 µM (inactive); in assay [12], 13.2 µM (inactive). Moreover, the GI50 in assay [13] is 11.5 µM (inactive); in assay [14], 7.55 µM (inactive); in assay [15], 6.75 µM (inactive); in [16], > 58.7 µM (inactive); in [17], 10.4 µM (inactive); in assay [18], 16.2 µM (inactive). Further, the GI50 in assay [19] is 19.3 µM (inactive); in assay [20], 5.61 µM (inactive).
With `C[C@H](Nc1nc(N)c(N=O)c(=O)n1C)C(=O)O`, the GI50 in [1], in assay [2], in assay [3], in assay [4], in assay [5] and in [6] was > 10 µM (inactive) in each case. Besides, the GI50 in assay [7], in assay [8], in assay [9], in assay [10], in assay [11] and in assay [12] was > 10 µM (inactive) throughout. The GI50 in [13], in assay [14], in assay [15], in assay [16], in assay [17] and in [18] was > 10 µM (inactive) in each case. For the same compound, the GI50 in [19] and in assay [20] was > 10 µM (inactive) in each case.
